The compounds below were run against BRD4 protein (Homo sapiens, UniProt O60885) (assay: FRET assay, half maximal inhibitory concentration (IC50)). Conditions: BRD4 protein 50 nM, Biotin-H4KAc4 peptide 12.5 nM; List of Classification.
Assay type: binding
Method in brief: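 HTRF: 50 nM BRD4 preincubated 30 min at room temperature with compound (10-fold series from 50 μM in 12.5% DMSO) in 50 mM HEPES pH 7.5, 100 mM NaCl, 0.05% CHAPS. Then 12.5 nM biotin-H4KAc4 peptide for 30 min, and anti-GST XL665 (10 nM) plus streptavidin cryptate (2.4 nM) with 0.4 M KF for 1 h. IC50 by variable-slope fit.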

Row | IC50 [nM] | SMILES
1 | < 200 | Cc1cc(O)nc2ccc(NC(=O)c3cccnc3N3CCC(F)(F)C3)cc12 [Compound-133, 2-(3,3-difluoropyrrolidin-1-yl)-N-(2-hydroxy-4-methyl-6-quinolyl)pyridine-3-carboxamide]
2 | < 200 | Cc1cc(O)nc2ccc(NC(=O)c3ccc(C(F)(F)F)nc3N3CCCC3)cc12 [Compound-134, N-(2-hydroxy-4-methyl-6-quinolyl)-2-pyrrolidin-1-yl-6-(trifluoromethyl)pyridine-3-carboxamide]
3 | 200 to 500 | Cc1cc(O)nc2ccc(NC(=O)c3ccc(C(F)(F)F)nc3N3CCOCC3)cc12 [Compound-135, N-(2-hydroxy-4-methyl-6-quinolyl)-2-morpholino-6-(trifluoromethyl)pyridine-3-carboxamide]
4 | < 200 | Cc1cc(O)nc2c(C)cc(NC(=O)c3cccnc3N3CCOCC3)cc12 [Compound-136, N-(2-hydroxy-4,8-dimethyl-6-quinolyl)-2-morpholino-pyridine-3-carboxamide]
5 | < 200 | Cc1cc(O)nc2ccc(NC(=O)c3cccnc3N3CCOC4CNCC43)cc12 (centres unmarked) [Compound-142, 2-(3,4a,5,6,7,7a-hexahydro-2H-pyrrolo[3,4-b][1,4]oxazin-4-yl)-N-(2-hydroxy-4-methyl-6-quinolyl)pyridine-3-carboxamide]
6 | < 200 | Cc1cc(O)nc2ccc(NC(=O)c3cccnc3N3CCOCC3CO)cc12 (centres unmarked) [Compound-145, 2-[3-(hydroxymethyl)morpholin-4-yl]-N-(2-hydroxy-4-methyl-6-quinolyl)pyridine-3-carboxamide]
7 | 500 to 1000 | Cc1cc(O)nc2ccc(NC(=O)c3cccnc3N3CCn4ccnc4C3)cc12 [Compound-147, 2-(6,8-dihydro-5H-imidazo[1,2-a]pyrazin-7-yl)-N-(2-hydroxy-4-methyl-6-quinolyl)pyridine-3-carboxamide]
8 | < 200 | Cc1cc(O)nc2ccc(NC(=O)c3cc(-c4cnoc4)ccc3N3CCOCC3)cc12 [Compound-151, N-(2-hydroxy-4-methyl-6-quinolyl)-5-isoxazol-4-yl-2-morpholino-benzamide]
9 | < 200 | Cc1cc2nc(O)cc(C)c2cc1NC(=O)c1cc(-c2cnn(C)c2)ccc1N1CCOCC1 [Compound-154, N-(2-hydroxy-4,7-dimethyl-6-quinolyl)-5-(1-methylpyrazol-4-yl)-2-morpholino-benzamide]
10 | < 200 | Cc1cc2nc(O)cc(C)c2cc1NC(=O)c1cc(-c2c(C)noc2C)ccc1N1CCOCC1 [Compound-155, 5-(3,5-dimethylisoxazol-4-yl)-N-(2-hydroxy-4,7-dimethyl-6-quinolyl)-2-morpholino-benzamide]
11 | < 200 | Cc1cc(O)nc2c(C)cc(NC(=O)c3cc(-c4ccoc4)ccc3N3CCOCC3)cc12 [Compound-157, 5-(3-furyl)-N-(2-hydroxy-4,8-dimethyl-6-quinolyl)-2-morpholino-benzamide]
12 | < 200 | COc1cc2nc(O)cc(C)c2cc1NC(=O)c1cc(-c2cnn(C)c2)ccc1N1CCOCC1 [Compound-159, N-(2-hydroxy-7-methoxy-4-methyl-6-quinolyl)-5-(1-methylpyrazol-4-yl)-2-morpholino-benzamide]
13 | < 200 | Cc1cc2nc(O)cc(C)c2cc1NC(=O)c1cc(-c2cnoc2)ccc1N1CCOCC1 [Compound-163, N-(2-hydroxy-4,7-dimethyl-6-quinolyl)-5-isoxazol-4-yl-2-morpholino-benzamide]
14 | < 200 | CC(C)c1cc(O)nc2ccc(NC(=O)c3cc(S(=O)(=O)N(C)C)ccc3N3CCCC3)cc12 [Compound-165, 5-(dimethylsulfamoyl)-N-(2-hydroxy-4-isopropyl-6-quinolyl)-2-pyrrolidin-1-yl-benzamide]

The next lines start with the compound.

Row | SMILES | IC50 [nM]
15 | CN1C(=O)CCc2cc(NC(=O)c3cccnc3N3CCOCC3)ccc21 [Compound-131, N-(1-methyl-2-oxo-3,4-dihydroquinolin-6-yl)-2-morpholino-pyridine-3-carboxamide] | 1000 to 10000
16 | Cc1cc(O)nc2ccc(NC(=O)c3cccnc3N3CCC(F)C3)cc12 (centres unmarked) [Compound-132, 2-(3-fluoropyrrolidin-1-yl)-N-(2-hydroxy-4-methyl-6-quinolyl)pyridine-3-carboxamide] | < 200
17 | Cc1cc2nc(O)cc(C)c2cc1NC(=O)c1c(C)ccnc1N1CCOCC1 [Compound-137, N-(2-hydroxy-4,7-dimethyl-6-quinolyl)-4-methyl-2-morpholino-pyridine-3-carboxamide] | 1000 to 10000
18 | Cc1ccnc(N2CCOCC2)c1C(=O)Nc1ccc2nc(O)cc(C)c2c1 [Compound-138, N-(2-hydroxy-4-methyl-6-quinolyl)-4-methyl-2-morpholino-pyridine-3-carboxamide] | 1000 to 10000
19 | Cc1cc(O)nc2ccc(NC(=O)c3cc(C(F)(F)F)cnc3N3CCOCC3)cc12 [Compound-139, N-(2-hydroxy-4-methyl-6-quinolyl)-2-morpholino-5-(trifluoromethyl)pyridine-3-carboxamide] | < 200
20 | Cc1cc(O)nc2ccc(NC(=O)c3cc(Cl)cnc3N3CCOCC3)cc12 [Compound-140, 5-chloro-N-(2-hydroxy-4-methyl-6-quinolyl)-2-morpholino-pyridine-3-carboxamide] | < 200
21 | Cc1cc(O)nc2ccc(NC(=O)c3cccnc3N3CCOC4COCC43)cc12 (centres unmarked) [Compound-143, 2-(2,3,4a,5,7,7a-hexahydrofuro[3,4-b][1,4]oxazin-4-yl)-N-(2-hydroxy-4-methyl-6-quinolyl)pyridine-3-carboxamide] | 500 to 1000
22 | Cc1cc(O)nc2ccc(NC(=O)c3cccnc3N3C4CCC3COC4)cc12 [Compound-144, N-(2-hydroxy-4-methyl-6-quinolyl)-2-(3-oxa-8-azabicyclo[3.2.1]octan-8-yl)pyridine-3-carboxamide] | < 200
23 | Cc1cc(O)nc2ccc(NC(=O)c3cccnc3N3CCC(F)(F)CC3)cc12 [Compound-146, 2-(4,4-difluoro-1-piperidyl)-N-(2-hydroxy-4-methyl-6-quinolyl)pyridine-3-carboxamide] | < 200
24 | COc1cc(O)nc2ccc(NC(=O)c3cccnc3N3CCOCC3)cc12 [Compound-149, N-(2-hydroxy-4-methoxy-6-quinolyl)-2-morpholino-pyridine-3-carboxamide] | 500 to 1000
25 | Cc1noc(C)c1-c1ccc(N2CCOCC2)c(C(=O)Nc2ccc3nc(O)cc(C)c3c2)c1 [Compound-152, 5-(3,5-dimethylisoxazol-4-yl)-N-(2-hydroxy-4-methyl-6-quinolyl)-2-morpholino-benzamide] | < 200
26 | COc1cc2nc(O)cc(C)c2cc1NC(=O)c1cc(-c2ccoc2)ccc1N1CCOCC1 [Compound-160, 5-(3-furyl)-N-(2-hydroxy-7-methoxy-4-methyl-6-quinolyl)-2-morpholino-benzamide] | 500 to 1000
27 | COc1cc2nc(O)cc(C)c2cc1NC(=O)c1cc(-c2c(C)noc2C)ccc1N1CCOCC1 [Compound-161, 5-(3,5-dimethylisoxazol-4-yl)-N-(2-hydroxy-7-methoxy-4-methyl-6-quinolyl)-2-morpholino-benzamide] | < 200
28 | Cc1cc2[nH]c(=O)cc(C)c2cc1NC(=O)c1cc(C#N)ncc1N1CCOCC1 [Compound-164, 2-cyano-N-(4,7-dimethyl-2-oxo-1H-quinolin-6-yl)-5-morpholino-pyridine-4-carboxamide] | < 200
29 | Cc1cc(O)nc2ccc(NC(=O)c3cc(-c4cnn(C)c4)ccc3N3CCOCC3)cc12 [Compound-166, N-(2-hydroxy-4-methyl-6-quinolyl)-5-(1-methylpyrazol-4-yl)-2-morpholino-benzamide] | < 200

From US10752640B2, “Compounds active towards bromodomains” (NUEVOLUTION A/S, priority 2014, dated 2020)
